Assay [1] concerns the target NAMPT (Homo sapiens, UniProt P43490). Description: Time-Resolved Fluorescence Resonance Energy Transfer (TR-FRET) Binding Assay of NAMPT with PRPP. The settings on record: 2 nM NAMPT, 2 nM probe, 200 uM PRPP and 2.5 mM ATP, equilibrated 16 hours. Put shortly: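 Binding measured by TR-FRET after a 16-hour equilibration meant to permit enzymatic compound modification. Substrates present at 200 uM PRPP and 2.5 mM ATP, with 2 nM enzyme, 2 nM probe, 1 nM Tb-anti-His antibody and 2% DMSO final.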
For orientation: Time-resolved FRET reads energy transfer from a long-lived donor to a nearby acceptor.

Assay [2] concerns the target NAMPT (human, recombinant, C-terminally His-tagged) (Homo sapiens, UniProt P43490). The assay is described as follows: Time-Resolved Fluorescence Resonance Energy Transfer (TR-FRET) Binding Assay of NAMPT. The settings on record: 6.8 nM NAMPT, 200 nM probe, equilibrated 3 hours, absence of substrates. The procedure, abridged: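 Probe displacement measured by TR-FRET (Ex 337 nm; 520/495 nm ratio) after 3 h room-temperature equilibration of compound with 6.8 nM His-tagged human NAMPT, 1 nM Tb-anti-His antibody and 200 nM Oregon Green 488 nicotinamide-site probe, pH 7.5 HEPES buffer, 2% DMSO. Control-normalized data fit four-parameter logistic for IC50.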

Sequence of NAMPT (P43490 whole entry): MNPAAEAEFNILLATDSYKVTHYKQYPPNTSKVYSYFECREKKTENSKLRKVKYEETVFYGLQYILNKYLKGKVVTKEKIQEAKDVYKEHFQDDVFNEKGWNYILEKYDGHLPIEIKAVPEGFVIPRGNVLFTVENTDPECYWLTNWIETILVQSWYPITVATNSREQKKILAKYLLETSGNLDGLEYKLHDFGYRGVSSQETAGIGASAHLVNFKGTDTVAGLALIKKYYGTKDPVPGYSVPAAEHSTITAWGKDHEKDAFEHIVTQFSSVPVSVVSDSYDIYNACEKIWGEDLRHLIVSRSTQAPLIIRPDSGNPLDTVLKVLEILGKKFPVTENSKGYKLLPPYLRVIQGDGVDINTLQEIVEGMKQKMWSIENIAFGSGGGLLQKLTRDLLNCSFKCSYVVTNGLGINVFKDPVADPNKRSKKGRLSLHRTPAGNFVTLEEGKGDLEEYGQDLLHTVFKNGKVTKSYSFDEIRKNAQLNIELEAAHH
Sequence of NAMPT (human, recombinant, C-terminally His-tagged) (P43490 whole entry): as above

What is called IC50 is the concentration needed to halve the response being measured. On to `CC[C@H](C)C(=O)N1CCC(Oc2ccc(NC(=O)C3CN(c4cccnn4)C3)cc2)CC1` [Example 212, N-[4-({1-[(2S)-2-methylbutanoyl]piperidin-4-yl}oxy)phenyl]-1-(pyridazin-3-yl)azetidine-3-carboxamide], for which the values for the concentration for half-maximal inhibition (IC50) in assay [1] and in assay [2] were 0.787 nM and 70.4 nM, respectively.
For `O=C(Nc1ccc(OC2CCN(C(=O)c3nccs3)CC2)cc1)C1CN(c2cccnn2)C1` [Example 213, 1-(pyridazin-3-yl)-N-(4-{[1-(1,3-thiazol-2-ylcarbonyl)piperidin-4-yl]oxy}phenyl)azetidine-3-carboxamide], in that order: 0.678 nM and 104 nM.
For `O=C(Nc1ccc(OC2CCN(C(=O)C3CCOCC3)CC2)cc1)C1CN(c2cccnn2)C1` [Example 214, 1-(pyridazin-3-yl)-N-(4-{[1-(tetrahydro-2H-pyran-4-ylcarbonyl)piperidin-4-yl]oxy}phenyl)azetidine-3-carboxamide], in that order: 0.841 nM and 165 nM.
Turning to `O=C(Nc1ccc(OC2CCN(C(=O)C(F)(F)c3ccccc3)CC2)cc1)C1CN(c2cccnn2)C1` [Example 215, N-[4-({1-[difluoro(phenyl)acetyl]piperidin-4-yl}oxy)phenyl]-1-(pyridazin-3-yl)azetidine-3-carboxamide], the figures for the IC50 in assay [1] and in assay [2] were 1.14 nM and 68.2 nM, respectively.
The matching figures for `O=C(Nc1ccc(OC2CCN(C(=O)C3CCC(F)(F)CC3)CC2)cc1)C1CN(c2cccnn2)C1` [Example 216, N-[4-({1-[(4,4-difluorocyclohexyl)carbonyl]piperidin-4-yl}oxy)phenyl]-1-(pyridazin-3-yl)azetidine-3-carboxamide]: 1.41 nM and 228 nM.
As to `CC(C)(C(=O)N1CCC(Oc2ccc(NC(=O)C3CN(c4cccnn4)C3)cc2)CC1)c1ccccc1` [Example 217, N-(4-{[1-(2-methyl-2-phenylpropanoyl)piperidin-4-yl]oxy}phenyl)-1-(pyridazin-3-yl)azetidine-3-carboxamide], the IC50 was found to be 1.51 nM in assay [1] and 43.9 nM in assay [2].
The matching figures for `O=C(Nc1ccc(OC2CCN(C(=O)c3cscn3)CC2)cc1)C1CN(c2cccnn2)C1` [Example 218, 1-(pyridazin-3-yl)-N-(4-{[1-(1,3-thiazol-4-ylcarbonyl)piperidin-4-yl]oxy}phenyl)azetidine-3-carboxamide]: 1.64 nM and 265 nM.
The matching figures for `Cc1ccc(C(=O)N2CCC(Oc3ccc(NC(=O)C4CN(c5cccnn5)C4)cc3)CC2)s1` [Example 219, N-[4-({1-[(5-methylthiophen-2-yl)carbonyl]piperidin-4-yl}oxy)phenyl]-1-(pyridazin-3-yl)azetidine-3-carboxamide]: 0.48 nM and 105 nM.
The matching figures for `O=C(Nc1ccc(OC2CCN(C(=O)Cc3ccc(C(F)(F)F)cc3)CC2)cc1)C1CN(c2cccnn2)C1` [Example 220, 1-(pyridazin-3-yl)-N-{4-[(1-{[4-(trifluoromethyl)phenyl]acetyl}piperidin-4-yl)oxy]phenyl}azetidine-3-carboxamide]: 1.01 nM and 267 nM.
For `O=C(Nc1ccc(OC2CCN(C(=O)C3CCCO3)CC2)cc1)C1CN(c2cccnn2)C1` (stereo not drawn) [Example 221, 1-(pyridazin-3-yl)-N-(4-{[1-(tetrahydrofuran-2-ylcarbonyl)piperidin-4-yl]oxy}phenyl)azetidine-3-carboxamide], the figures for the IC50 in assay [1] and in assay [2] were 0.576 nM and 164 nM, respectively.
Consider `O=C(Nc1ccc(OC2CCN(C(=O)c3cccc(C(F)(F)F)c3)CC2)cc1)C1CN(c2cccnn2)C1` [Example 222, 1-(pyridazin-3-yl)-N-[4-({1-[3-(trifluoromethyl)benzoyl]piperidin-4-yl}oxy)phenyl]azetidine-3-carboxamide], for which the IC50 in assay [1] is 1.03 nM; in assay [2], 215 nM.
Turning to `O=C(Nc1ccc(OC2CCN(C(=O)c3ccsc3)CC2)cc1)C1CN(c2cccnn2)C1` [Example 223, 1-(pyridazin-3-yl)-N-(4-{[1-(thiophen-3-ylcarbonyl)piperidin-4-yl]oxy}phenyl)azetidine-3-carboxamide], the 50% inhibitory concentration (IC50) in assay [1] came to 0.959 nM; in assay [2] it was 150 nM.
Regarding `O=C(Nc1ccc(OC2CCN(C(=O)c3cccc(OC(F)(F)F)c3)CC2)cc1)C1CN(c2cccnn2)C1` [Example 224, 1-(pyridazin-3-yl)-N-[4-({1-[3-(trifluoromethoxy)benzoyl]piperidin-4-yl}oxy)phenyl]azetidine-3-carboxamide], the values for the IC50 in assay [1] and in assay [2] were 1.39 nM and 151 nM, respectively.
For `CC(C)CC(=O)N1CCC(Oc2ccc(NC(=O)C3CN(c4cccnn4)C3)cc2)CC1` [Example 225, N-(4-{[1-(3-methylbutanoyl)piperidin-4-yl]oxy}phenyl)-1-(pyridazin-3-yl)azetidine-3-carboxamide], in that order: 1.07 nM and 158 nM.
`O=C(Nc1ccc(OC2CCN(C(=O)C3CCOC3)CC2)cc1)C1CN(c2cccnn2)C1` (stereo not drawn) [Example 226, 1-(pyridazin-3-yl)-N-(4-{[1-(tetrahydrofuran-3-ylcarbonyl)piperidin-4-yl]oxy}phenyl)azetidine-3-carboxamide]: the half-maximal inhibitory concentration (IC50) in assay [1] worked out at 0.896 nM; in assay [2], 242 nM.
The matching figures for `O=C(Nc1ccc(OC2CCN(C(=O)Cc3cccc(F)c3)CC2)cc1)C1CN(c2cccnn2)C1` [Example 227, N-[4-({1-[(3-fluorophenyl)acetyl]piperidin-4-yl}oxy)phenyl]-1-(pyridazin-3-yl)azetidine-3-carboxamide]: 0.696 nM and 65.9 nM.
For `O=C(Nc1ccc(OC2CCN(C(=O)c3ccccc3F)CC2)cc1)C1CN(c2cccnn2)C1` [Example 228, N-(4-{[1-(2-fluorobenzoyl)piperidin-4-yl]oxy}phenyl)-1-(pyridazin-3-yl)azetidine-3-carboxamide], in that order: 0.911 nM and 54.6 nM.
For `O=C(Nc1ccc(OC2CCN(C(=O)c3ccc(F)cc3F)CC2)cc1)C1CN(c2cccnn2)C1` [Example 229, N-(4-{[1-(2,4-difluorobenzoyl)piperidin-4-yl]oxy}phenyl)-1-(pyridazin-3-yl)azetidine-3-carboxamide], in that order: 0.584 nM and 48 nM.
Consider `O=C(Nc1ccc(OC2CCN(C(=O)c3ccc(F)cc3)CC2)cc1)C1CN(c2cccnn2)C1` [Example 230, N-(4-{[1-(4-fluorobenzoyl)piperidin-4-yl]oxy}phenyl)-1-(pyridazin-3-yl)azetidine-3-carboxamide], for which the results for the concentration for half-maximal inhibition (IC50) in assay [1] and in assay [2] were 0.843 nM and 158 nM, respectively.
For `O=C(Nc1ccc(OC2CCN(C(=O)c3cccc(F)c3)CC2)cc1)C1CN(c2cccnn2)C1` [Example 231, N-(4-{[1-(3-fluorobenzoyl)piperidin-4-yl]oxy}phenyl)-1-(pyridazin-3-yl)azetidine-3-carboxamide], in that order: 0.831 nM and 174 nM.
On to `O=C(Nc1ccc(OC2CCN(C(=O)Cc3ccc(F)cc3)CC2)cc1)C1CN(c2cccnn2)C1` [Example 232, N-[4-({1-[(4-fluorophenyl)acetyl]piperidin-4-yl}oxy)phenyl]-1-(pyridazin-3-yl)azetidine-3-carboxamide], for which the IC50 in assay [1] was 0.563 nM; in assay [2] it was 141 nM.
The matching figures for `O=C(Nc1ccc(OC2CCN(C(=O)CC3CC3)CC2)cc1)C1CN(c2cccnn2)C1` [Example 233, N-(4-{[1-(cyclopropylacetyl)piperidin-4-yl]oxy}phenyl)-1-(pyridazin-3-yl)azetidine-3-carboxamide]: 0.614 nM and 113 nM.
For `O=C(Nc1ccc(OC2CCN(C(=O)c3ccc(F)c(F)c3)CC2)cc1)C1CN(c2cccnn2)C1` [Example 234, N-(4-{[1-(3,4-difluorobenzoyl)piperidin-4-yl]oxy}phenyl)-1-(pyridazin-3-yl)azetidine-3-carboxamide], in that order: 0.73 nM and 185 nM.
Consider `O=C(Nc1ccc(OC2CCN(C(=O)c3ccc(OC(F)(F)F)cc3)CC2)cc1)C1CN(c2cccnn2)C1` [Example 235, 1-(pyridazin-3-yl)-N-[4-({1-[4-(trifluoromethoxy)benzoyl]piperidin-4-yl}oxy)phenyl]azetidine-3-carboxamide], for which the IC50 in assay [1] was 1.41 nM; in assay [2], 283 nM.
As to `O=C(Nc1ccc(OC2CCN(C(=O)Cc3ccc(F)cc3F)CC2)cc1)C1CN(c2cccnn2)C1` [Example 236, N-[4-({1-[(2,4-difluorophenyl)acetyl]piperidin-4-yl}oxy)phenyl]-1-(pyridazin-3-yl)azetidine-3-carboxamide], the IC50 in assay [1] is 1.11 nM; in assay [2] it was 130 nM.
As to `O=C(Nc1ccc(OC2CCN(C(=O)c3ccc(C(F)(F)F)cc3)CC2)cc1)C1CN(c2cccnn2)C1` [Example 237, 1-(pyridazin-3-yl)-N-[4-({1-[4-(trifluoromethyl)benzoyl]piperidin-4-yl}oxy)phenyl]azetidine-3-carboxamide], the results for the IC50 in assay [1] and in assay [2] were 1.27 nM and 240 nM, respectively.
For `O=C(Nc1ccc(OC2CCN(C(=O)Cc3ccc(OC(F)(F)F)cc3)CC2)cc1)C1CN(c2cccnn2)C1` [Example 238, 1-(pyridazin-3-yl)-N-{4-[(1-{[4-(trifluoromethoxy)phenyl]acetyl}piperidin-4-yl)oxy]phenyl}azetidine-3-carboxamide], in that order: 0.554 nM and 207 nM.

The record behind these values is US8975398B2, “NAMPT inhibitors” (AbbVie Inc., priority 2012, dated 2015).
